# From PubChem BioAssay AID1963976 (Molecular Pharmacology Branch, DTP, NCI, 2024)
# pIC50: −log10 of the molar value.
# Test system: 435261-313-R-J1-PDC tumor spheroid viability
# Assay: Anticancer human tumor 435261-313-R-J1-PDC patient-derived colon adenocarcinoma cell line growth inhibition [PI3K]
# Details: spheroids with HUVEC and MSC; for pIC50: curve of first compound; for viability, T/C: stronger effect = lower value
# Procedure, shortened: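 Multi-cell spheroids combine tumor cells with HUVEC and human MSCs, treated with targeted agents alone or with inavolisib, alpelisib, duvelisib or copanlisib. Concentrations fall in half-log steps from at or near clinical Cmax, or from 10 microM where Cmax is unknown; viability read-out.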
# [1] = second compound 0.0316 µM, first compound 0.0316 µM
# [2] = second compound 0.0316 µM, first compound 0.1 µM
# [3] = second compound 0.0316 µM, first compound 0.316 µM
# [4] = second compound 0.0316 µM, first compound 1 µM
# [5] = second compound 0.0316 µM, first compound 3.16 µM
# [6] = second compound 0.0316 µM, first compound 10 µM
# [7] = second compound 0.1 µM, first compound 0.0316 µM
# [8] = second compound 0.1 µM, first compound 0.1 µM
# [9] = second compound 0.1 µM, first compound 0.316 µM
# [10] = second compound 0.1 µM, first compound 1 µM
# [11] = second compound 0.1 µM, first compound 3.16 µM
# [12] = second compound 0.1 µM, first compound 10 µM
# [13] = second compound 0.316 µM, first compound 0.0316 µM
# [14] = second compound 0.316 µM, first compound 0.1 µM
# [15] = second compound 0.316 µM, first compound 0.316 µM
# [16] = second compound 0.316 µM, first compound 1 µM
# [17] = second compound 0.316 µM, first compound 3.16 µM
# [18] = second compound 0.316 µM, first compound 10 µM
# [19] = second compound 1 µM, first compound 0.0316 µM
# [20] = second compound 1 µM, first compound 0.1 µM
# [21] = second compound 1 µM, first compound 0.316 µM
# [22] = second compound 1 µM, first compound 1 µM
# [23] = second compound 1 µM, first compound 3.16 µM
# [24] = second compound 1 µM, first compound 10 µM
# [25] = second compound 3.16 µM, first compound 0.0316 µM
# [26] = second compound 3.16 µM, first compound 0.1 µM
# [27] = second compound 3.16 µM, first compound 0.316 µM
# [28] = second compound 3.16 µM, first compound 1 µM
# [29] = second compound 3.16 µM, first compound 3.16 µM
# [30] = second compound 3.16 µM, first compound 10 µM
# [31] = second compound 10 µM, first compound 0.0316 µM
# [32] = second compound 10 µM, first compound 0.1 µM
# [33] = second compound 10 µM, first compound 0.316 µM
# [34] = second compound 10 µM, first compound 1 µM
# [35] = second compound 10 µM, first compound 3.16 µM
# [36] = second compound 10 µM, first compound 10 µM
# 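Also: spheroids exposed to compounds for 7 days.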
structure (smiles),measurement,setting,value
C#Cc1c(F)ccc2cc(O)cc(-c3ncc4c(N5CC6CCC(C5)N6)nc(OCC56CCCN5CC(F)C6)nc4c3F)c12 (stereo unspecified) + Cc1nc(NC(=O)N2CCCC2C(N)=O)sc1-c1ccnc(C(C)(C)C(F)(F)F)c1,pIC50,second compound 0.0316 µM,5.26
same,pIC50,second compound 0.1 µM,5.67
same,pIC50,second compound 0.316 µM,5.97
same,pIC50,second compound 1 µM,> 7.50
same,pIC50,second compound 3.16 µM,> 7.50
same,pIC50,second compound 10 µM,> 7.50
same,"viability, T/C",[1],73.7%
same,"viability, T/C",[2],78%
same,"viability, T/C",[3],102%
same,"viability, T/C",[4],49%
same,"viability, T/C",[5],70.5%
same,"viability, T/C",[6],35.6%
same,"viability, T/C",[7],61.1%
same,"viability, T/C",[8],77%
same,"viability, T/C",[9],98.3%
same,"viability, T/C",[10],58.2%
same,"viability, T/C",[11],43.8%
same,"viability, T/C",[12],18.4%
same,"viability, T/C",[13],39.2%
same,"viability, T/C",[14],67.5%
same,"viability, T/C",[15],46.2%
same,"viability, T/C",[16],51.7%
same,"viability, T/C",[17],27.1%
same,"viability, T/C",[18],12.6%
same,"viability, T/C",[19],23.7%
same,"viability, T/C",[20],27%
same,"viability, T/C",[21],28.4%
same,"viability, T/C",[22],27.9%
same,"viability, T/C",[23],13.9%
same,"viability, T/C",[24],7.05%
same,"viability, T/C",[25],17.1%
same,"viability, T/C",[26],19.7%
same,"viability, T/C",[27],11.3%
same,"viability, T/C",[28],8.79%
same,"viability, T/C",[29],6.05%
same,"viability, T/C",[30],1.23%
same,"viability, T/C",[31],9.19%
same,"viability, T/C",[32],6.14%
same,"viability, T/C",[33],3.65%
same,"viability, T/C",[34],3.37%
same,"viability, T/C",[35],2.05%
same,"viability, T/C",[36],0.32%
CC(Cn1ccc(-c2ccc(C#N)c(Cl)c2)n1)NC(=O)c1cc(C(C)O)[nH]n1 (stereo unspecified) + Cc1nc(NC(=O)N2CCCC2C(N)=O)sc1-c1ccnc(C(C)(C)C(F)(F)F)c1,pIC50,second compound 0.0316 µM,< 5.00
same,pIC50,second compound 0.1 µM,< 5.00
same,pIC50,second compound 0.316 µM,> 7.50
same,pIC50,second compound 1 µM,> 7.50
same,pIC50,second compound 3.16 µM,> 7.50
same,pIC50,second compound 10 µM,> 7.50
same,"viability, T/C",[1],107%
same,"viability, T/C",[2],71.6%
same,"viability, T/C",[3],83.6%
same,"viability, T/C",[4],84.8%
same,"viability, T/C",[5],101%
same,"viability, T/C",[6],106%
same,"viability, T/C",[7],68.3%
same,"viability, T/C",[8],70.4%
same,"viability, T/C",[9],71.3%
same,"viability, T/C",[10],72.2%
same,"viability, T/C",[11],66.3%
same,"viability, T/C",[12],73.7%
same,"viability, T/C",[13],37.6%
same,"viability, T/C",[14],54.1%
same,"viability, T/C",[15],37.3%
same,"viability, T/C",[16],50.9%
same,"viability, T/C",[17],63.7%
same,"viability, T/C",[18],49.4%
same,"viability, T/C",[19],24.6%
same,"viability, T/C",[20],36.8%
same,"viability, T/C",[21],36.3%
same,"viability, T/C",[22],34.2%
same,"viability, T/C",[23],38.6%
same,"viability, T/C",[24],31.6%
same,"viability, T/C",[25],17.4%
same,"viability, T/C",[26],17.7%
same,"viability, T/C",[27],15.4%
same,"viability, T/C",[28],17.9%
same,"viability, T/C",[29],18.8%
same,"viability, T/C",[30],20.1%
same,"viability, T/C",[31],9.77%
same,"viability, T/C",[32],6.96%
same,"viability, T/C",[33],8.76%
same,"viability, T/C",[34],9.85%
same,"viability, T/C",[35],10.7%
same,"viability, T/C",[36],6%
CC1(C)CCC(Nc2ncc(C(F)(F)F)c(-c3c[nH]c4c(P(C)(C)=O)c(C#N)ccc34)n2)CN1 (stereo unspecified) + Cc1nc(NC(=O)N2CCCC2C(N)=O)sc1-c1ccnc(C(C)(C)C(F)(F)F)c1,pIC50,second compound 0.0316 µM,> 7.50
same,pIC50,second compound 0.1 µM,> 7.50
same,pIC50,second compound 0.316 µM,> 7.50
same,pIC50,second compound 1 µM,> 7.50
same,pIC50,second compound 3.16 µM,> 7.50
same,pIC50,second compound 10 µM,> 7.50
same,"viability, T/C",[1],47.1%
same,"viability, T/C",[2],45.9%
same,"viability, T/C",[3],39.3%
same,"viability, T/C",[4],38.1%
same,"viability, T/C",[5],33.7%
same,"viability, T/C",[6],0.64%
same,"viability, T/C",[7],48.5%
same,"viability, T/C",[8],36.8%
same,"viability, T/C",[9],41.9%
same,"viability, T/C",[10],38.3%
same,"viability, T/C",[11],32.4%
same,"viability, T/C",[12],0.39%
same,"viability, T/C",[13],35.5%
same,"viability, T/C",[14],33.5%
same,"viability, T/C",[15],27.3%
same,"viability, T/C",[16],29.3%
same,"viability, T/C",[17],25.4%
same,"viability, T/C",[18],0.33%
same,"viability, T/C",[19],23.3%
same,"viability, T/C",[20],22.3%
same,"viability, T/C",[21],26.7%
same,"viability, T/C",[22],27.3%
same,"viability, T/C",[23],14.8%
same,"viability, T/C",[24],0.53%
same,"viability, T/C",[25],14.8%
same,"viability, T/C",[26],17.2%
same,"viability, T/C",[27],14.7%
same,"viability, T/C",[28],14.2%
same,"viability, T/C",[29],6.95%
same,"viability, T/C",[30],0.84%
same,"viability, T/C",[31],7.65%
same,"viability, T/C",[32],5.94%
same,"viability, T/C",[33],5.07%
same,"viability, T/C",[34],6.14%
same,"viability, T/C",[35],2.6%
same,"viability, T/C",[36],1.22%
